Where two headings read alike, the source gives them in different places.
Key:
[1] = molecular target: Tyk2 (Homo sapiens (Human), UniProt P29597); assay: Biochemical JAK kinase assay (LanthaScreen), Tyk2; details: converted from pIC50 using Cheng-Prusoff; ATP 10 μM
Description: (§1) Assay 1: Biochemical JAK Kinase Assays
(§2) A panel of four LanthaScreen JAK biochemical assays (JAK1, 2, 3 and Tyk2) were carried in a common kinase reaction buffer (50 mM HEPES, pH 7.5, 0.01% Brij-35, 10 mM MgCl2, and 1 mM EGTA). Recombinant GST-tagged JAK enzymes and a GFP-tagged STAT1 peptide substrate were obtained from Life Technologies.
(§3) Serially diluted compounds were pre-incubated with each of the four JAK enzymes and the substrate in white 384-well microplates (Corning) at ambient temperature for 1 h. ATP was subsequently added to initiate the kinase reactions in 10 μL total volume, with 1% DMSO. […] Kinase reactions were allowed to proceed for 1 hour at ambient temperature before a 10 μL preparation of EDTA (10 mM final concentration) and Tb-anti-pSTAT1 (pTyr701) antibody (Life Technologies, 2 nM final concentration) in TR-FRET dilution buffer (Life Technologies) was added. The plates were allowed to incubate at ambient temperature for 1 h before being read on the EnVision reader (Perkin Elmer). Emission ratio signals (520 nm/495 nm) were recorded and utilized to calculate the percent inhibition values based on DMSO and background controls.
(§4) For dose-response analysis, percent inhibition data were plotted vs. compound concentrations, and IC50 values were determined from a 4-parameter robust fit model with the Prism software (GraphPad Software). Results were expressed as pIC50 (negative logarithm of IC50) and subsequently converted to pKi (negative logarithm of dissociation constant, Ki) using the Cheng-Prusoff equation.

[2] = Lung and plasma exposure in mice after oral aspiration; type: in vivo; details: mouse, other: oral aspiration, 50 µg/animal; for concentration at 5 h: Balb/c mice, 1 mg/mL, 50 μL via oral aspiration
Description: Adult Balb/c mice from Harlan were used in the assay. […] Animals were placed in lateral recumbency post dose and monitored for full recovery from anesthesia before being returned to their home cage. Four hours later, animals were once again briefly anesthetized and challenged with either vehicle or IL-13 (0.03 μg total dose delivered, 50 μL total volume) via oral aspiration before being monitored for recovery from anesthesia and returned to their home cage. One hour after vehicle or IL-13 administration, whole blood and lungs were collected for both pSTAT6 detection in lung homogenates using a Perkin Elmer AlphaLISA® SureFire® Ultra™ HVp-STAT6 (Tyr641) assay kit and for total drug concentration analysis in both lung and plasma. Blood samples were centrifuged (Eppendorf centrifuge, 5804R) for 4 minutes at approximately 12,000 rpm at 4° C. to collect plasma. […] Plasma and lung levels of test compound were determined by LC-MS analysis against analytical standards constructed into a standard curve in the test matrix. A lung to plasma ratio was determined as the ratio of the lung concentration in ng/g to the plasma concentration in ng/mL at 5 hours.

[3] = molecular target: JAK2 (Homo sapiens (Human), UniProt O60674); assay: Biochemical JAK kinase assay (LanthaScreen), JAK2; details: converted from pIC50 using Cheng-Prusoff; ATP 3 μM
Chain of JAK2 (O60674 whole entry): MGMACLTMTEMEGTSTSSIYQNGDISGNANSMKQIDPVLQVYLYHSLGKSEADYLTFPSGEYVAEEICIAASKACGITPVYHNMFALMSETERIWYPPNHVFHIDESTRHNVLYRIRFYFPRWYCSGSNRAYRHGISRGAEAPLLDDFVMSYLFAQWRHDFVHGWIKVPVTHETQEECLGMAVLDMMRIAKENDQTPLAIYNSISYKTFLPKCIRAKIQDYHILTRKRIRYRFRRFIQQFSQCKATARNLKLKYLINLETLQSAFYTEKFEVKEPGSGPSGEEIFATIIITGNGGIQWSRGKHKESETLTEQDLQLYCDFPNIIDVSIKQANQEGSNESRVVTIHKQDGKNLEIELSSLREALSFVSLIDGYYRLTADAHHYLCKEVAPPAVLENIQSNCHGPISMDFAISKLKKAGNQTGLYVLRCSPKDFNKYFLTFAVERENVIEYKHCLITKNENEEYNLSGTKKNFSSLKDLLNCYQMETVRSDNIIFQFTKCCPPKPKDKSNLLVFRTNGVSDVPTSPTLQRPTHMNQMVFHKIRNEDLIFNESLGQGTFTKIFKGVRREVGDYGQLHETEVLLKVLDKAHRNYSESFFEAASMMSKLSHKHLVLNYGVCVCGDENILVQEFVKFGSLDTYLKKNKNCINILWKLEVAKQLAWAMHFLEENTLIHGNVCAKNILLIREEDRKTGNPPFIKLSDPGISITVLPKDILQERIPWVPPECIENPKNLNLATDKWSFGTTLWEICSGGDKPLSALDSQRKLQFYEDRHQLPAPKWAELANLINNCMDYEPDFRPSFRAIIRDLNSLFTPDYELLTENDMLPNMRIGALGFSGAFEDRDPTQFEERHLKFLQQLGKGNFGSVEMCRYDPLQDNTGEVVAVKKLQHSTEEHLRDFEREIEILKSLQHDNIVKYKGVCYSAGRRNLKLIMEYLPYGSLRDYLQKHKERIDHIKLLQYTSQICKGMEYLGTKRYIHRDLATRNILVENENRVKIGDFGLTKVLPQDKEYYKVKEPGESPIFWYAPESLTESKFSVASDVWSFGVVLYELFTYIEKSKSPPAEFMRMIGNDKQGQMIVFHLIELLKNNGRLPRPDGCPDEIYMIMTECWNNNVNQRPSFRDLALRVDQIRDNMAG
Description: as §1, §2, §3, §4

Chain of Tyk2 (P29597 whole entry): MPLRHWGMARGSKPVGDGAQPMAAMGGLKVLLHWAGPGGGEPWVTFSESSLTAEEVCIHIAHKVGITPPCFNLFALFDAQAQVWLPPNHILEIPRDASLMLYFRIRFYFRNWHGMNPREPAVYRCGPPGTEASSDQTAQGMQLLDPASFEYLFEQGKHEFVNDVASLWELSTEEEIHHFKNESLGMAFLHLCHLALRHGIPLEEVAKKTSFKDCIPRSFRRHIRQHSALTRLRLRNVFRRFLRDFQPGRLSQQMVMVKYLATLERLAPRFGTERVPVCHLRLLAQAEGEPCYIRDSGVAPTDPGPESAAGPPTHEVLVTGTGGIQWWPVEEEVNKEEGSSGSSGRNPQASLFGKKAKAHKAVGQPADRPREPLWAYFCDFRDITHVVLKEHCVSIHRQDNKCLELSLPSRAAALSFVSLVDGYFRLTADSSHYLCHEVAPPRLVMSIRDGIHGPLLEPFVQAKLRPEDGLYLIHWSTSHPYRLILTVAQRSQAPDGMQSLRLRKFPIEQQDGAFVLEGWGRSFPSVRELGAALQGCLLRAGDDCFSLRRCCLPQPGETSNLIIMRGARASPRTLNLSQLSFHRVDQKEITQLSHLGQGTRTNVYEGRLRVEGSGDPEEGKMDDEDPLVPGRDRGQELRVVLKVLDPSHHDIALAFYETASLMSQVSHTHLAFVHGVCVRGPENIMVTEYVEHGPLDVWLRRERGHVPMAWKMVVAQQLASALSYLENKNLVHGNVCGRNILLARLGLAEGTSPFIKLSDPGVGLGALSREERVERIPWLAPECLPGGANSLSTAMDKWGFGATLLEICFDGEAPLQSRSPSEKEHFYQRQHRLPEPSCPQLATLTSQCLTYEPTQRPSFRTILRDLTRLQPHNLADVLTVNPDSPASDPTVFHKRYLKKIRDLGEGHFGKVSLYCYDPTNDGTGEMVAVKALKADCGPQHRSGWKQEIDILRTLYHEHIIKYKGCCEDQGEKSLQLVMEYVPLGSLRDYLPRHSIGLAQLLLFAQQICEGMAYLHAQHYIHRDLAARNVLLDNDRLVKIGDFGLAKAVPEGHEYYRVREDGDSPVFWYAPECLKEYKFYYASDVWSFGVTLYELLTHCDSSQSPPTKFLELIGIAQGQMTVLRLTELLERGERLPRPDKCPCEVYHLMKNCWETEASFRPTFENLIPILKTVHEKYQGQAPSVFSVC

Question: For `CCc1cc(O)c(F)cc1-c1ccc2c(-c3nc4c([nH]3)CN(C(C)C)[C@H](C(=O)N3CC(N(C)C)C3)C4)n[nH]c2c1` [Example 8, (S)-(3-(dimethylamino)azetidin-1-yl)(2-(6-(2-ethyl-5-fluoro-4-hydroxyphenyl)-1H-indazol-3-yl)-5-isopropyl-4,5,6,7-tetrahydro-3H-imidazo[4,5-c]pyridin-6-yl)methanone], which “Tyk2 pKi” value [1] is on record?
Answer: 9.5

Question: What about the Kp at 5 h ([2]; Balb/c, lung and plasma, lung ng/g to plasma ng/mL, mice, read-out: Lung to Plasma ratio at 5 hr) of the same molecule?
Answer: 381

Question: What about the concentration at 5 h ([2]; lung, read-out: Lung Concentration (ng/g) at 5 hr) of the same molecule?
Answer: 22100 ± 5550 ng/g

Question: And the concentration at 5 h ([2]; plasma, read-out: Plasma Concentration (ng/mL) at 5 hr)?
Answer: 58 ± 17 ng/mL

Question: What about the “JAK2 pKi” value [3] of the same molecule?
Answer: 10.8
